Test results from patent US8431747B2, “Process for the preparation of monomers for polybenzimidazole materials” (E I du Pont de Nemours and Company, priority 2008, dated 2013).
Structures can show the parent of a compound that is named as a salt.

Assay: solubility of TAT salt in water
Format: physicochemical
Conditions: 25° C.
Method: The reaction mixture containing the precipitated TAT salt is then cooled to about 5° C. to about 15° C. and stirred, then filtered. The TAT salt is then washed 44. It may be washed with deaerated aqueous acid, such as HCl (33%), and then optionally with deaerated ethanol or methanol to produce a wet cake material. The used acid can then be distilled and recycled (31, 30, 33). […] Using an agitated filter unit during the wash procedures can allow for a reduction of the wash volumes. Under such circumstances, using small amounts of cold (e.g., about 5° C.) water instead of the aqueous acid would be effective; cold water would be used because of lower solubility of the TAT salt in cold water versus, e.g., room temperature. For example, the solubility of TAT.4HCl in water at 25° C. is about 16 wt %.

For `Cc1c(N)c(N)cc(N)c1N` [TAT.4HCl, 2,3,5,6-tetraaminotoluene salt], which solubility in water is on record?
Its solubility in water is “about 16 wt %”.
